What all share (assay type): functional
In assay [1] the test system is Onchocerca lienalis. Description: MMV: Percent motility assay at a compound concentration of 7.8e-7 M. Activity score legend: 3: Active, 2: Moderately active; 1: Inactive, 0: Toxic. The conditions noted are these: at 0.78 µM.
Assay [2] deals with Onchocerca lienalis. As to the kind of experiment: MMV: Percent motility assay at a compound concentration of 1.9e-7 M. Activity score legend: 3: Active, 2: Moderately active; 1: Inactive, 0: Toxic. The conditions noted are these: at 0.19 µM.
Assay [3] concerns Onchocerca lienalis. Description: MMV: Percent motility assay at a compound concentration of 1.25e-5 M. Activity score legend: 3: Active, 2: Moderately active; 1: Inactive, 0: Toxic. To be noted: at 12.5 µM.
Assay [4] has as its system Onchocerca lienalis. Description: MMV: Percent motility assay at a compound concentration of 3.1e-6 M. Activity score legend: 3: Active, 2: Moderately active; 1: Inactive, 0: Toxic. To be noted: at 3.1 µM.

Consider `CCOc1ccccc1CN1CCc2nc3cc(C(C)(C)C)nn3c(O)c2C1`, for which the Motility in the assay with Onchocerca lienalis [1], in the assay on Onchocerca lienalis [2], in the assay on Onchocerca lienalis [3] and in the assay with Onchocerca lienalis [4] was 100% throughout.
For `Cc1cc(N2CCCC2)nc(Nc2ccc(NC(=O)CCc3ccccc3)cc2)n1`, the Motility is given as 100% with Onchocerca lienalis [1], 100% in the assay with Onchocerca lienalis [2], 13.33% in the assay with Onchocerca lienalis [3] and 66.66% in the assay with Onchocerca lienalis [4].
Take `CN1CCN(c2ncnc3c2[nH]c2ccc(Cl)cc23)CC1`: the Motility in the assay on Onchocerca lienalis [1], with Onchocerca lienalis [2], in the assay on Onchocerca lienalis [3] and with Onchocerca lienalis [4] was 100% throughout.
As for `COc1ccc2nc(C)cc(Nc3cccc(O)c3)c2c1.Cl`, the Motility in the assay with Onchocerca lienalis [1], in the assay on Onchocerca lienalis [2], in the assay with Onchocerca lienalis [3] and in the assay on Onchocerca lienalis [4] was 100% in each case.
As for `CN(C)CCCNCc1ccc(-c2ccc(F)c(Cl)c2)o1.Cl`, the Motility in the assay on Onchocerca lienalis [1], in the assay with Onchocerca lienalis [2], with Onchocerca lienalis [3] and with Onchocerca lienalis [4] was 100% each time.
`O=c1nc(C=Cc2ccc(Br)cc2)oc2ccccc12`: the Motility with Onchocerca lienalis [1], in the assay on Onchocerca lienalis [2], in the assay with Onchocerca lienalis [3] and in the assay on Onchocerca lienalis [4] was 100% each time.
In the case of `COc1ccc2nc(N)nc(C)c2c1`, the Motility in the assay with Onchocerca lienalis [1], with Onchocerca lienalis [2], in the assay with Onchocerca lienalis [3] and with Onchocerca lienalis [4] was 100% each time.
For `CCC(=O)Nc1nnc(Cc2ccc(OC)c(OC)c2)s1`, the Motility with Onchocerca lienalis [1], in the assay with Onchocerca lienalis [2], with Onchocerca lienalis [3] and with Onchocerca lienalis [4] was 100% each time.
Regarding `COc1cccc(C(=O)Nc2ccc(-c3nc4ccccc4[nH]3)cc2)c1`, the Motility with Onchocerca lienalis [1], with Onchocerca lienalis [2], in the assay on Onchocerca lienalis [3] and with Onchocerca lienalis [4] was 100% in each case.
With `CCOc1ccccc1NC(=O)CN1CCN(C(=O)c2ccco2)CC1`, the Motility in the assay on Onchocerca lienalis [1], with Onchocerca lienalis [2], in the assay with Onchocerca lienalis [3] and in the assay with Onchocerca lienalis [4] was 100% in each case.
With `CCOc1cc2c(cc1OCC)C(c1cc(Cl)c(O)c(OCC)c1)NCC2` (stereo not drawn), the Motility in the assay on Onchocerca lienalis [1], with Onchocerca lienalis [2], in the assay with Onchocerca lienalis [3] and with Onchocerca lienalis [4] was 100% throughout.
Turning to `COc1ccc(N2CCN(C(CNC(=O)CC(C)(C)C)c3ccc4c(c3)OCO4)CC2)cc1` (stereo not drawn), the Motility with Onchocerca lienalis [1], with Onchocerca lienalis [2], in the assay on Onchocerca lienalis [3] and in the assay on Onchocerca lienalis [4] was 100% each time.
For the molecule `COc1ccc(CN2CCN(Cc3ccccc3)CC2)c(O)c1`, the Motility with Onchocerca lienalis [1], with Onchocerca lienalis [2], in the assay on Onchocerca lienalis [3] and with Onchocerca lienalis [4] was 100% in each case.
On to `Cl.OC(CNCc1ccccc1)Cn1c2ccccc2c2ccccc21` (stereo not drawn), for which the Motility with Onchocerca lienalis [1], in the assay on Onchocerca lienalis [2], in the assay on Onchocerca lienalis [3] and with Onchocerca lienalis [4] was 100% in each case.
In the case of `Clc1ccc2c(N3CCCC3)ccnc2c1`, the Motility in the assay on Onchocerca lienalis [1], in the assay on Onchocerca lienalis [2], in the assay with Onchocerca lienalis [3] and with Onchocerca lienalis [4] was 100% in each case.
As for `COc1ccc(C(=O)C2CC2c2ccc(Cl)cc2)cc1` (stereo not drawn), the Motility with Onchocerca lienalis [1], in the assay with Onchocerca lienalis [2], with Onchocerca lienalis [3] and with Onchocerca lienalis [4] was 100% throughout.
In the case of `O=c1c2c([nH]c3ccccc13)CCCC2`, the Motility with Onchocerca lienalis [1], with Onchocerca lienalis [2], in the assay on Onchocerca lienalis [3] and in the assay with Onchocerca lienalis [4] was 100% throughout.

The values are drawn from ChEMBL document CHEMBL3137381, “MMV Box Onchocerca lienalis screening set”.
